The values that follow come from patent publication US10806798B2, “Compound with effects of thrombolysis, free radical scavenging and thrombus-targeting” (Shanghai Lumosa Therapeutics Co., Ltd., priority 2012, dated 2020).

The test system of the data set is rats with stroke. The data set is described as follows: Successive treatments with 1 μmol/kg Ie starting 6 h after the onset of stroke (Zealonga scores). It is filed as in vivo, SD rats. On the procedure:
The efficacy was represented by neural function scores, and a lower score indicates higher efficacy. A 10% chloral hydrate solution was injected intraperitoneally into male SD rats at a dosage of 400 mg/kg body weight for anesthesia. A longitudinal open incision was made at the center of the neck, and the right common carotid artery trunk was dissected (about 3 cm in length). Carotid external artery branches were each dissected and ligated at the hyoid level, and the carotid internal artery was dissected at the swollen part of the neck. The open incision in the carotid internal artery and the proximal end of the common carotid artery were occluded respectively with noninvasive arterial clips, and the distal end of the carotid external artery was ligated. A catheter containing 0.5 mL thrombus suspension in normal saline was inserted in the carotid external artery trunk. At the same time when the clip on the carotid internal artery was released, the 0.5 mL thrombus suspension in normal saline in the catheter slowly flew from the carotid external artery to its proximal end, and then was injected into the arteries in brain through the carotid internal artery. Subsequently, the proximal end of the carotid artery was ligated, the arterial clips on the carotid internal artery and the common carotid artery were released, and blood flow was restored. After the wound was stitched up, 20,000 IU penicillin was intramuscularly injected for prevention from infection. After 6 h, compound Ie in normal saline (at a dosage of 1 μmol/kg, n=11), urokinase in normal saline (at a dosage of 20000 IU/kg, n=6) or tPA in normal saline (at a dosage of 3 mg/kg, n=6) was infused through the tail vein. Infusion of compound Ie in normal saline through rat tail vein was carried out once per day for 6 consecutive days, observed for 7 days. The rats were compared to themselves each day, and evaluated for the degree of damage in neural function by the Zealonga method. Alternatively, infusion of urokinase in normal saline through rat tail vein was carried out once per day for two consecutive days, the rats were compared to themselves each day, and evaluated for the degree of damage in neural function by the Zealonga method. Alternatively, infusion of tPA in normal saline through rat tail vein was carried out once per day for two consecutive days, the rats were compared to themselves each day, and evaluated for the degree of damage in neural function by the Zealonga method. A score of 0 indicated no sign of loss in neural function, 1 indicated the front limbs on the undamaged side could not stretch out, 2 indicated walking toward the undamaged side, 3 indicated tail-chasing walking in circles toward the undamaged side, 4 indicated involuntary walking with disturbance of consciousness, and 5 indicated death.

The mark [1] stands for this setting: Day 1, urokinase 20000 IU/kg once per day from 6 h after stroke onset, n=6.
Where [2] appears, read: Day 2, urokinase 20000 IU/kg once per day from 6 h after stroke onset, n=6.

Regarding urokinase, under setting [1], the “number of rats scored Score 1” value came to 1 rat rats, the “number of rats scored Score 2” value was 1 rat rats and the “number of rats scored Score 3” value worked out at 4 rats. For the same substance, under setting [2], the “number of rats scored Score 0” value was determined as 1 rat rats and the “number of rats scored Score 2” value is recorded as 1 rat rats. For the setting “out of 6 rats, within 24 h, urokinase 20000 IU/kg each day from 6 h after stroke onset”, this substance registered a rats died of 4. Further, where the note is “urokinase 20000 IU/kg each day from 6 h after stroke onset”, the “autopsy on the dead rats” value is “hemorrhage in internal organs, particularly severe hemorrhage in lungs”.
